# Source: patent publication US20060016765A1, “Water treatment” (priority 2004, published 2006)
# “And” between values parts separate entries of the source, which are not always exact repeats. Equal entries are not always repeated. Where two headings read alike, the source gives them in different places.
# Tests used:
# Assay type in all cases: cell-based
# [1] = test system: Aspergillus fumigatus ATCC 1098; test: Fungicidal activity, modified AOAC Method 955.17, spore kill; details: for reduction of the fungal bioburden: solutions equivalent to amounts found in the tablet solution
# Experimental: This assay had several modifications from the published AOAC Fungicidal Activity of Disinfectants Protocol, Method 955.17. Aspergillus fumigatus ATCC 1098 was grown on Malt Extract Agar (available from Becton Dickinson, Billerica, Mass.) plates, and spores were harvested. Spores were stored in filter-sterilized Millipore water at −20° C. The spore preparation used for this experiment is detailed below. A freezer stock of A. fumigatus was defrosted and diluted to obtain an inoculum suspension for this experiment. […] The following test solutions were prepared using filter-sterilized MILLIPORE water in steam-sterilized 4 L bottles:
# Water Control: (filter-sterilized water only), pH 6.28.
# OXONE Control: 3.78 g OXONE in 1 gallon (about 3.8 liters) sterile water, buffered to pH 4.43 using 0.98 g NaHCO3 and 5.25 g 10% H2SO4.
# Chlorite Control: 0.26 g of sodium chlorite in 1-gallon sterile water buffered to pH 4.55 (1.8 g 10% H2SO4).
# Buffer Control: sodium bicarbonate, pH adjusted to 4.4.
# Chlorine Dioxide: Anthium Dioxide (stabilized sodium chlorite available from IDI, North Kingston, R1) was acidified with HCl.
# CLOROX control: 4.17% (v/v) CLOROX bleach available from Clorox Company, Oakland, Calif. (v/v) in MILLIPORE water by mixing 4.17 ml of Clorox bleach and water up to 100 ml total volume.
# Reaction tubes: 5 ml of each test solution was aliquoted into 25×150 mm test culture tubes, capped and labeled according to Table 6. 9 ml of D/E (Dey/Engley) Neutralizing Broth (available from Becton Dickinson, Billerica, Mass.) was added to each of 28 test tubes and the tubes were capped. Butterfield buffer blanks were arranged for dilution of neutralized samples, and Malt Extract Agar plates were numbered for spore enumerations of the diluted, neutralized samples. With a graduated pipette, 0.5 ml of spore inoculum (about […]) was added to the first tube of test solution and gently shaken. After 5- and 15-minute exposures to the respective test solutions, samples were gently shaken and 1 ml samples were removed from each reaction mixture (spore-test solution) using an Eppendorf pipette and placed in 9 ml D/E (Dey/Engley) Neutralizing Broth. The inoculum was further diluted to approximately 10^4 condia/ml. Two more reaction tubes (water and OXONE-chlorite) and four Dey/Engley neutralization tubes were prepared to evaluate the efficacy of the tablet solution versus a final inoculum density of 10^4 condia/ml in the reaction tube. Samples were reacted for 15 minutes only. Dilutions of neutralized samples were prepared. Two 100 μl aliquots of all samples in D/E (Dey/Engley) Neutralizing Broth were plated on Malt Extract Agar and incubated at 25° C. until the appearance of colonies. Plates were counted after colonies appeared, roughly 4 days after incubation. Several dilutions of the inoculum spore suspensions were also plated on Malt Extract Agar to obtain an accurate count of viable spores used as inoculum. The samples were incubated at 25° C. and counted after the appearance of colonies, after about 4 days of incubation.
# Buffer control data was taken after 15 minutes. CLOROX control data was taken after 5 minutes of treatment.
# [2] = test system: Salmonella choleraesuis ATCC 10708
# [3] = test system: Pseudomonas aeruginosa ATCC 15442; test: Microbial efficacy, modified AOAC 965.13, serial-dilution plate count
# [4] = test system: Staphylococcus aureus ATCC 6538; test: as above
# [5] = 30 sec exposure, Example 11 = 1,008 ppm Oxone + 55.5 ppm Chlorite, controls 1,008 ppm Oxone, 55.5 ppm Chlorite, 23.2 ppm ClO2
# [6] = 30 sec exposure, Example 11 = 1,008 ppm Oxone + 55.5 ppm Chlorite, controls 1,008 ppm Oxone, 55.5 ppm Chlorite, 23.2 ppm ClO2, low level of detection 1.0E+01 CFU/mL
# [7] = 10 min exposure, Example 11 = 1,008 ppm Oxone + 55.5 ppm Chlorite, controls 1,008 ppm Oxone, 55.5 ppm Chlorite, 23.2 ppm ClO2
# [8] = 10 min exposure, Example 11 = 1,008 ppm Oxone + 55.5 ppm Chlorite, controls 1,008 ppm Oxone, 55.5 ppm Chlorite, 23.2 ppm ClO2, low level of detection 1.0E+01 CFU/mL
Molecule,CFU/ml [2],"Surviving Bioburden Counts (germinating spores, conidia/ml) ([1]; 5 min, 2 replicates average) [E + 05 conidia/ml]","Surviving Bioburden Counts (germinating spores, conidia/ml) ([1]; 15 min, 2 replicates average) [E + 05 conidia/ml]",reduction of the fungal bioburden [1],reduction of the bioburden within 15 minutes of treatment [1],"Δt (log difference test and control densities) [3, 5] [log]","CFU/ml [3, 6]","Δt (log difference test and control densities) [3, 7] [log]","CFU/ml [3, 8]","Δt (log difference test and control densities) [4, 5] [log]","CFU/ml [4, 6] [E + 06 CFU/ml]","Δt (log difference test and control densities) [4, 7] [log]","CFU/ml [4, 8]",further results
"[O][Cl+][O-] [ClO2 control, chlorine dioxide]",1.00E + 01 CFU/ml,–,–,–,–,–,–,–,–,–,–,–,–,"Surviving Bioburden Counts (germinating spores, conidia/ml) [1]: 0.00E + 00 conidia/ml; kill of A. fumigatus spores within 5 minutes [1]: 5 log; Δt (log difference test and control densities) [2]: 5.1 log and 5.3 log; CFU/ml [3]: 1.00E + 01 CFU/ml; Δt (log difference test and control densities) [3]: 5 log and 5.0 log and 5.1 log; CFU/ml [4]: 1.00E + 01 CFU/ml; Δt (log difference test and control densities) [4]: 5.1 log and 5.2 log"
"triple salt of potassium monopersulfate, potassium hydrogen sulfate and potassium sulfate [Oxone control]",2.95E + 03 CFU/ml and 2.14E + 06 CFU/ml,3.45,5.70,ineffective in reducing the fungal bioburden,not able to reduce the bioburden,0.0,9.50E + 05 CFU/ml,5.1,1.00E + 01 CFU/ml,0.0,1.52,0.4,6.15E + 05 CFU/ml,–
sodium chlorite [Chlorite control],–,4.25,6.25,ineffective in reducing the fungal bioburden,not able to reduce the bioburden,−0.1,1.17E + 06 CFU/ml,0.0,1.21E + 06 CFU/ml,0.0,1.23,0.1,1.20E + 06 CFU/ml,"Δt (log difference test and control densities) [2, 5]: −0.3 log; CFU/ml [2, 6]: 3.09E + 06 CFU/ml; Δt (log difference test and control densities) [2, 7]: 0.2 log; CFU/ml [2, 8]: 1.27E + 06 CFU/ml"
